Consider one substance from US20220249399A1, “COMPOSITION COMPRISING AN ANTI-OXIDANT TO PRESERVE CORNEAL TISSUE” (University of lowa Research Foundation, priority 2019, published 2022).

Data set [1] is described as follows: Dispersibility and solubility in water, solvents and media. Type of data set: physicochemical. The conditions noted are these: for solubility in cell culture: cell culture environments (primary cultures). As to the method:
50 mg of kneaded complex added to 10 ml H2O and shaken for 2 hours.
In FIG. 10, the image on the right is 5 mg of CoQ10 added to 10 ml H2O and shaken for 2 hours.
Paired corneas were supplemented with 10 μM ubiquinol (Fuller et al., 2006) (USP analytical standard, Sigma Aldrich, St. Louis, Mo.), 100 μM palmitate-BSA (Pfleger et al., 2015) (Agilent, Santa Clara, Calif.), or diluent only for 5 days, such that one cornea from a donor received treatment while its mate from the same donor was a control. Concentrations were chosen based on previously published studies (Fuller et al., 2006; Pfleger et al., 2015). Diluents were chosen based on supplement solubility. Although several diluents were tried for ubiquinol (water, Optisol-GS, DMSO and ethanol), ethanol was chosen based on its ability to solubilize ubiquinol most successfully. No complexing agents were used to solubilize ubiquinol. Following the 5 days of storage with supplementation, tissues were processed for metabolic and cell viability assays as described below.
Due to its long hydrocarbon side chain, ubiquinol is difficult to solubilize in biocompatible solvents. In this series, several attempts were made to bring this lipid-soluble molecule into aqueous solution. First, ubiquinol was attempted to be dissolved using polar […] known to be biocompatible with CECs (Optisol-GS, water) based on the goal of achieving a high bioavailability for clinical applications. […] Next two organic polar […] solvents, DMSO and absolute ethanol, were tested. DMSO commonly is used as a solvent in cell biology and biochemistry, and both DMSO and ethanol can solubilize hydrocarbons. […] In addition to its lipophilicity, native ubiquinol is also unstable. Although not encountered in this series ubiquinol oxidizes in the presence of oxygen and light and turns yellow, indicating the formation of its oxidized form, ubiquinone. It is therefore necessary to improve the solubility and handleability of ubiquinol for future validations of its effects on oxidative stress related pathways.

In data set [2] the test system is human donor corneal endothelial cells. Put plainly: Apoptosis and necrosis assays on donor endothelial cell-Descemet membrane tissue after storage. The format is cell-based. The conditions noted are these: for corneal endothelial cell necrosis, change vs control: vs diluent control. As to the method:
Human corneal tissue pairs were obtained by Iowa Lions Eye Bank (ILEB) from nondiabetic donors 60-75 years old and stored in Optisol GS (Bausch+Lomb, Irvine, Calif.) at 4° C. following procurement in accordance with Eye Bank Association of America and ILEB policies and procedures. […] Descemet membrane and endothelial cell punches were collected and mounted onto the bottom of a Seahorse assay plate (cells facing upward). Mitochondrial respiration was assayed by measuring oxygen consumption using the Seahorse XFe24 Extracellular Flux Analyzer (Agilent Technologies, Santa Clara, Calif.) over 120 minutes (9-minute intervals). Punches were labeled with a nuclear counterstain (DAPI) and remaining tissues were mounted onto slides and labeled with 488A-Annexin V, Ethidium Homodimer III, and Hoechst 33342 (Apoptotic, Necrotic, and Healthy Cells Quantification Kit; Biotium, Fremont, Calif.) to assay cell health. Nuclei were counted in each punch to normalize respirometry data. Immunohistochemistry densitometry was measured using ImageJ software.
(§1) Human corneal tissue pairs were obtained by Iowa Lions Eye Bank (ILEB) from nondiabetic donors 60-75 years old and stored in Optisol GS (Bausch+Lomb, Irvine, Calif.) at 4° C. following procurement in accordance with Eye Bank Association of America and ILEB policies and procedures. For 5 days prior to testing, but within 9 days of procurement, one stored tissue from a corneal pair was treated with 10 μM CoQ10, while the mate tissue was treated with diluent only as a control. Descemet membrane and endothelial cell punches were collected and mounted onto the bottom of a Seahorse assay plate (cells facing upward). Mitochondrial respiration was assayed by measuring oxygen consumption using the Seahorse XFe24 Extracellular Flux Analyzer (Agilent Technologies, Santa Clara, Calif.) over 120 minutes (9-minute intervals). Punches were labeled with a nuclear counterstain (DAPI) and remaining tissues were mounted onto slides and labeled with 488A-Annexin V, Ethidium Homodimer III, and Hoechst 33342 (Apoptotic, Necrotic, and Healthy Cells Quantification Kit; Biotium, Fremont, Calif.) to assay cell health. Nuclei were counted in each punch to normalize respirometry data. Immunohistochemistry densitometry was measured using ImageJ software.
as §1, with “100” for “10”, “palmitate-BSA,” for “CoQ10,”, “BSA” for “diluent”
In brief, excess EDM tissues from surrounding the punches used for metabolic assays were incubated with 488A-Annexin V, Ethidium Homodimer III, and Hoechst 33342 (Apoptotic, Necrotic, and Healthy Cells Quantification Kit; Biotium, Fremont, Calif.) to detect the apoptotic, necrotic, and entire cell populations, respectively. […]

Where [3] appears, read: 10 μM ubiquinol vs diluent-treated mate cornea, 5 days, n = 9.
[4] abbreviates: 10 μM ubiquinol, 5 days in Optisol-GS, n = 9 matched tissues.
The mark [5] stands for this setting: palmitate-BSA treated tissues (100 μM), 5 days, n = 8 matched tissues.

For the substance ubiquinol, the “solubility in Optisol-GS storage media after dissolving in ethanol” value in data set [1] is listed as “appeared to remain in solution”. Moreover, in data set [1] (50 mg kneaded complex or 5 mg CoQ10 in 10 ml H2O, shaken for 2 hours), the dispersibility in water entry is on record as “prefers to accumulate at the air-water interface or to adhere to the glass container”. Moreover, the “solubility in cell culture” value is “precipitated out of solution” in data set [1] and “not soluble” in data set [1] (listed as coQ10). The “solubility in DMSO” value in data set [1] (despite heating the solution) is given as “precipitated in DMSO”. Further, the “solubility in Optisol-GS, water” value in data set [1] (even after heating) is given as “precipitated out of these solutions”. Moreover, the “solubility in absolute ethanol” value in data set [1] (heated to 37° C., precipitates if not poured immediately into storage media) is on record as “dissolved”. The “protection against apoptosis and necrosis” value in data set [2] (1 μM coQ10, tissues in storage) is “protected not only against apoptosis, but also against necrosis”. For the same substance, the “apoptosis reduced in treated cells” value in data set [2] (10 μM CoQ10, 5 days in Optisol GS, vs diluent control (p=0.09)) was found to be 29%. The “corneal endothelial cell necrosis, change vs control” value in data set [2] (10 μM CoQ10, 5 days in Optisol GS, listed as CoQ10) is reported as “not changed”; in data set [2] (10 μM CoQ10, 5 days in Optisol GS, listed as co-Q10), “did not change”; in data set [2] (10 μM CoQ10, 5 days in Optisol GS, listed as coenzyme Q10), “did not change”. In data set [2] (setting [3]), the “% Apoptotic, Mean Ratio: Ubiquinol/Control (95% CI)” value is recorded as “Ratio: 0.90 (0.63, 1.29)”. Besides, in data set [2] (setting [3]), the “% Necrotic, Mean Ratio: Ubiquinol/Control (95% CI)” value is “Ratio: 1.02 (0.91, 1.15)”. Moreover, the entries for the “% Apoptotic, Mean (SD)” value in data set [2] (setting [4]) and in data set [2] (setting [5]) were 0.0040 (0.0047) % and 0.00053 (0.00062) %, respectively. In addition, the “% Necrotic, Mean (SD)” value is recorded as 0.0263 (0.0070) % in data set [2] (setting [4]) and 0.0628 (0.0532) % in data set [2] (setting [5]). Further, in data set [2] (Example 13: 10 μM ubiquinol, 5 days in Optisol-GS (p=0.517)), the “apoptosis, change vs controls” value is listed as “no significant change”. Also, in data set [2] (Example 13: 10 μM ubiquinol, 5 days in Optisol-GS (p=0.694)), the “cell necrosis, change vs controls” value is on record as “no significant change”. The “CEC cell death in storage” value in data set [2] (ubiquinol supplemented corneal storage medium vs non-supplemented) is reported as “decreased”.
